Several values for one entry are separate records, joined by “and”; a condition that tells them apart may be missing. Identical values can stand only once.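 In this assay, cells in 96-well plates receive the compound at five concentrations for 48 hours. Endpoints are linearly interpolated between the surrounding concentrations. The concentration for 50% growth inhibition is given as GI50. TGI denotes the concentration required for complete inhibition of growth.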
Tests used:
Experiment in all cases: inhibition of tumour cell growth, NCI panel, 48 h
MOLT-4 leukemia = tested on: MOLT-4 leukemia
NCI-H460 lung = tested on: NCI-H460 lung
MDA-MB-435 = tested on: MDA-MB-435
HS 578T breast = tested on: HS 578T breast
SN12C renal = tested on: SN12C renal
SNB-19 CNS = tested on: SNB-19 CNS
M14 melanoma = tested on: M14 melanoma
OVCAR-8 ovarian = tested on: OVCAR-8 ovarian
OVCAR-5 ovarian = tested on: OVCAR-5 ovarian
UACC-257 melanoma = tested on: UACC-257 melanoma

Row | SMILES | GI50 (MOLT-4 leukemia) [µM] | TGI (MOLT-4 leukemia) | GI50 (NCI-H460 lung) | TGI (NCI-H460 lung) | GI50 (MDA-MB-435) [µM] | TGI (MDA-MB-435) | GI50 (HS 578T breast) [µM] | TGI (HS 578T breast) | GI50 (SN12C renal) [µM] | TGI (SN12C renal) | GI50 (SNB-19 CNS) [µM] | TGI (SNB-19 CNS) | GI50 (M14 melanoma) [µM] | TGI (M14 melanoma) | GI50 (OVCAR-8 ovarian) [µM] | TGI (OVCAR-8 ovarian) | GI50 (OVCAR-5 ovarian) [µM] | TGI (OVCAR-5 ovarian) | GI50 (UACC-257 melanoma) [µM] | TGI (UACC-257 melanoma)
1 | CC1(C)NCCC[C@]2(C)[C@H]3C=CC4=C5C[C@](C)(CO)CC[C@]5(C)CC[C@@]4(C)[C@]3(C)CC[C@@H]12 | 2.46 | 6.8 µM | 4.17 µM | 15.2 µM | 3.76 | 14 µM | 3.2 | 13.2 µM | 3.34 | 12 µM | 11.6 | 25.3 µM | 3.91 | 14.8 µM | 2.56 | 6.66 µM | 12.4 | 25.3 µM | 5.24 | 17 µM
2 | O=C1C(Cl)=C(Oc2ccc([N+](=O)[O-])cc2)C(=O)c2c(O)ccc(O)c21 | – | 25.2 µM | – | > 100 µM | – | > 67.8 µM | – | > 100 µM | – | > 100 µM | – | > 100 µM | – | > 69.2 µM | – | > 100 µM | – | > 100 µM | – | > 100 µM
3 | CC1(C)OC[C@@H]([C@@]2(CO[Si](C)(C)C(C)(C)C)CC=CC(=O)O2)O1 | 23.7 | > 100 µM | 26.6 µM | > 100 µM | 22.8 | 57.4 µM | 30.4 | 89.4 µM | 19.5 | 47.6 µM | 22.7 | 68.9 µM | 20.9 | 50.7 µM | 33.9 | > 100 µM | 28.6 | 69.3 µM | 13.8 | 33.2 µM
4 | O=[N+]([O-])c1ccc(-c2nc(N(CCO)CCO)c3ccccc3n2)o1 | 0.508 | > 38.9 µM | 0.0537 µM | 0.38 µM | 0.309 | 1.27 µM | 0.346 | 1.99 µM | 0.292 | 7.72 µM | 0.229 | 1.41 µM | 0.143 | 0.316 µM | 0.262 | 2.88 µM | 0.562 | 5.1 µM | 0.189 | 0.453 µM
5 | CCCCCNC(=O)[C@@H]1CCCN2C(=O)CC[C@H](NC(=O)[C@H](Cc3ccc(OP(=O)(O)O)cc3)NC(C)=O)C(=O)N12 | > 25 | > 25 µM | > 25 µM | > 25 µM | > 25 | > 25 µM | > 25 | > 25 µM | > 25 | > 25 µM | > 25 | > 25 µM | > 25 | > 25 µM | > 25 | > 25 µM | > 25 | > 25 µM | > 25 | > 25 µM
6 | O=C1/C(=C/c2ccc(O)c([N+](=O)[O-])c2)CCC/C1=C\c1ccc(O)c([N+](=O)[O-])c1 | 17.4 | 50 µM and 47 µM | – | 31.6 µM | 1.53 | 21.3 µM and 5.35 µM | – | 60.3 µM | 46.2 | 26.2 µM and > 100 µM | 17.1 | 28.7 µM and 35.2 µM | 14.6 | 31.8 µM and 29.7 µM | 16 | 50 µM and 34.7 µM | 21.9 | 33.8 µM and 39.5 µM | 15.5 | 44.3 µM and 37.7 µM
7 | CC([C@H]1CCC2C3CCC4C[C@@H](NC=O)CC[C@]4(C)C3CC[C@@]21C)N(C)C (stereo partly drawn) | 1.84 | 8.71 µM | 1.89 µM | 4.04 µM | 2.29 | 5.86 µM | 2.69 | 12 µM | 2.88 | 13.7 µM | 7.08 | 19.5 µM | 1.87 | 3.55 µM | 6.48 | > 46.4 µM | 6.87 | 19.3 µM | 2.57 | 6.24 µM
8 | c1ccc(C(=NNc2nc3ccccc3o2)c2ccccn2)nc1 | 0.0316 | > 56.5 µM | 0.0575 µM and 0.163 µM | 5.22 µM and 1.5 µM | 0.273 | 34.6 µM and 28.3 µM | 1.01 | > 81.9 µM and 55.5 µM | 0.0856 | > 71.7 µM | – | > 46 µM and 33.7 µM | 0.0418 | – | 0.0389 | – | 0.0847 | – | 0.163 | 0.633 µM
9 | Nc1ccc(C(=O)c2ccc(N)c(Br)c2)cc1Br | 0.654 | 59.4 µM | 0.346 µM | 5.76 µM | 0.207 | 0.49 µM | 0.345 | – | 0.903 | > 100 µM | 0.637 | > 100 µM | 0.32 | 72.5 µM | 0.518 | 46.1 µM | 0.701 | > 100 µM | 14.4 | > 100 µM
10 | OCC(O)C(O)C(O)C1SC(c2ccccc2)=NN1c1ccccc1 (stereo not drawn) | – | > 100 µM | – | > 100 µM | – | > 100 µM | – | > 100 µM | – | > 100 µM | – | > 89.8 µM | – | > 100 µM | – | > 100 µM | – | > 100 µM | – | > 100 µM
11 | C=C1C[C@@H]2C/C=C/C(=O)C/C(C)=C\C=C\C(=O)O[C@H](C=O)C/C(C)=C/[C@H](C1)O2 | 2.72 | 13.7 µM | 3.07 µM | 16.7 µM | 0.316 | > 100 µM | 4.23 | > 65.1 µM | 0.697 | 20.4 µM | 4.34 | 24.8 µM | 0.281 | 0.738 µM | 1.49 | > 100 µM | 2.31 | 13.5 µM | 14.1 | 34.7 µM
12 | S=c1nc(Oc2ccc(Cl)c(Cl)c2)[nH]c(=S)[nH]1 | – | > 69.6 µM | – | 64.9 µM | – | > 100 µM | – | > 100 µM | – | > 95.6 µM | – | > 100 µM | – | > 100 µM | – | 97.4 µM | – | > 100 µM | – | > 80 µM
13 | O=C1CCCCCCCC/C=C/CCC(c2ccco2)O1 (stereo not drawn) | 24.1 | 89.6 µM | > 100 µM | > 100 µM | 99.6 | > 100 µM | 16.2 | 77.9 µM | 31.7 | > 100 µM | 24 | 60.7 µM | 67.7 | > 100 µM | 88.1 | > 100 µM | > 100 | > 100 µM | > 100 | > 100 µM
14 | Cc1ccccc1CN1CC2=C(CCN(Cc3ccccc3)C2=O)N2CCN=C12 | – | > 100 µM | – | > 100 µM | – | > 100 µM | – | > 100 µM | – | > 100 µM | – | > 100 µM | – | > 100 µM | – | > 100 µM | – | > 100 µM | – | > 100 µM
15 | c1ccc2[nH]c(SSc3nc4ncncc4[nH]3)nc2c1 | 0.486 | > 100 µM | 4.48 µM | > 100 µM | 0.446 | > 100 µM | 8.92 | > 100 µM | 5.38 | > 100 µM | 64.5 | > 100 µM | 0.347 | 82.1 µM | 3.32 | > 100 µM | 13 | > 100 µM | 4.97 | > 75.2 µM
16 | CN(C)CCCN=C(N)N | – | > 100 µM | – | > 100 µM | – | > 100 µM | – | > 100 µM | – | > 100 µM | – | > 100 µM | – | > 100 µM | – | > 100 µM | – | > 100 µM | – | > 100 µM
17 | COc1cc(Cl)cc(-c2nn(C(=O)NCCN3CCN(C)CC3)cc2-c2ccncc2)c1 | 29.4 | > 100 µM | 21 µM | 60.4 µM | 10.4 | 35 µM | 4.96 | 32.9 µM | 10.6 | > 100 µM | 7.93 | > 100 µM | 9.46 | 29.3 µM | 2.94 | > 100 µM | 17.9 | 68.2 µM | 20.5 | > 100 µM
18 | NCCCC(=O)Nc1ccncc1 | > 100 | > 100 µM | > 100 µM | > 100 µM | > 100 | > 100 µM | > 100 | > 100 µM | > 100 | > 100 µM | > 100 | > 100 µM | > 100 | > 100 µM | > 100 | > 100 µM | > 100 | > 100 µM | > 100 | > 100 µM
19 | CC1(C)COCN1COC1CCCCC1 | – | 83.9 µM | – | > 100 µM | – | > 100 µM | – | > 100 µM | – | > 100 µM | – | > 100 µM | – | > 100 µM | – | > 100 µM | – | > 100 µM | – | > 100 µM
20 | CC(=O)Nc1nc(SCc2ccccc2)c2ncn(C(C)=O)c2n1 | > 100 | > 100 µM | > 100 µM | > 100 µM | > 100 | > 100 µM | 47.3 | > 100 µM | > 100 | > 100 µM | > 100 | > 100 µM | 88.6 | > 100 µM | 76.5 | > 100 µM | > 100 | > 100 µM | > 100 | > 100 µM

— PubChem BioAssay (NCI)
